Biological target: T1, Phosphorylated rglkA (Staphylococcus aureus, UniProt H6UH58)
T1 construct: gene glcK; recombinant from clone glkA1, nickel-column purified (His tag implied); phosphorylated in vitro by S. aureus rBYK (tyrosine; site not determined)
Experiment: coupled glucose-6-phosphate dehydrogenase assay, […] nm; Hanes-Woolf plot
Format: biochemical
Settings: ATP, 0.5 mM MgCl2, NADP, 60 mM Tris-HCl pH 7.5, 37 °C; enzyme phosphorylated by BYK

T1 sequence (H6UH58 entry or part of it): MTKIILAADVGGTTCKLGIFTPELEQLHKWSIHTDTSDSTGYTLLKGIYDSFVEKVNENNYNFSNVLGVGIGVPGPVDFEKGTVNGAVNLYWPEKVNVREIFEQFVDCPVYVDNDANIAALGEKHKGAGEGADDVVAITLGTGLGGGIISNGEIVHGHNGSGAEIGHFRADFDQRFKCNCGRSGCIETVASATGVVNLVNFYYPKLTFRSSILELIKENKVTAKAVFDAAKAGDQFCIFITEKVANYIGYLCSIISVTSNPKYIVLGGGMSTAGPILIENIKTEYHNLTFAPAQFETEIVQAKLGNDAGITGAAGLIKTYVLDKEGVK

Q: With `OC[C@H]1OC(O)[C@H](O)[C@@H](O)[C@@H]1O` (stereo partly shown) [glucose] as the compound, how does the Km read?
A: 5.18 ± 0.5 mM

Source: article PMC5274716, “Phosphorylation of Staphylococcus aureus Protein-Tyrosine Kinase Affects the Function of Glucokinase and Biofilm Formation” (Iranian Biomedical Journal, 2017)
